# Reference: ChEMBL document CHEMBL1135075, “Synthesis and biological evaluation of imidazol-2-one and 2-cyanoiminoimidazole derivatives: novel series of PDE4 inhibitors” (Bioorg Med Chem Lett, 2002)
# Legend:
# [1] = test system: Rattus norvegicus; experiment: Tested in vivo for lowest active dose that induced inhibitory effect on gastric emptying in rats; assay type: functional, Stomach
# [2] = target: 3',5'-cyclic-AMP phosphodiesterase 4B (Homo sapiens, UniProt Q07343); experiment: Inhibitory activity against recombinant phosphodiesterase 4B (PDE4B) of human mononuclear lymphocytes
# Chain of 3',5'-cyclic-AMP phosphodiesterase 4B (Q07343 whole entry): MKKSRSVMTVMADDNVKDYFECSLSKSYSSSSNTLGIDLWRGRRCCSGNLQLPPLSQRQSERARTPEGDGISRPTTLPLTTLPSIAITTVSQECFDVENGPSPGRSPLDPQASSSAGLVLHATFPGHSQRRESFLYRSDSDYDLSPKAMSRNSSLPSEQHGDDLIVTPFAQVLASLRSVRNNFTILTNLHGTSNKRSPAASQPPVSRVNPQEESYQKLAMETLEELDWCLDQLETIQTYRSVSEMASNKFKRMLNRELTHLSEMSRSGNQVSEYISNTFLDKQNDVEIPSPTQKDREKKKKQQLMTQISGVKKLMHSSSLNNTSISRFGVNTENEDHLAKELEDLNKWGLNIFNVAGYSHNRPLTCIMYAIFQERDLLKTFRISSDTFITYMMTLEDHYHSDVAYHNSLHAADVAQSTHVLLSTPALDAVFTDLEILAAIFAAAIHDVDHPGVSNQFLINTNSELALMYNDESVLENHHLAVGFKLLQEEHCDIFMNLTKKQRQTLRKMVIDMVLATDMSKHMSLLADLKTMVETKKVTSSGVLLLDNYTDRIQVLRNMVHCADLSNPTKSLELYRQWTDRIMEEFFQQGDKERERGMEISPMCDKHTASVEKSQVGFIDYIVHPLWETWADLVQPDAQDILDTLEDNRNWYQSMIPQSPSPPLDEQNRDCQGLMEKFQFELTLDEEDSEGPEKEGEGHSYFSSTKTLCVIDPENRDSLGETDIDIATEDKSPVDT
# [3] = test system: Mus musculus; experiment: Evaluated for antiinflammatory activity in the TPA induced ear inflammation model at a dose 1 mg/kg (25 ug); assay type: functional
# [4] = test system: Mus musculus; experiment: Evaluated for antiinflammatory activity in the TPA induced ear inflammation model at a dose 2 mg/kg (50 ug); assay type: functional
# [5] = target: Phosphodiesterase 4 (Rattus norvegicus, UniProt P14270+P14646+P14644+P54748); experiment: Displacement of [3H]rolipram from rat forebrain membrane; assay type: tissue-based, Brain
IC50 [2],Ki [5],SMILES,LAD [1],inhibition in vivo at 1 mg/kg [3],inhibition in vivo at 2 mg/kg [4]
367 nM,,COc1ccc(C(C)(C)Cn2ccnc2O)cc1OC1CCCC1,0.63 mg/kg,,
< 10 nM,,CC(Cn1ccnc1O)c1ccc(OC(F)F)c(OC2CCCC2)c1 (centres undefined),0.02 mg/kg,,
341 nM,,COc1ccc(C2(Cn3ccnc3O)CC2)cc1OC1CCCC1,0.63 mg/kg,18%,66%
24.1 nM,,COc1ccc(C(C)Cn2ccnc2O)cc1OC1CCCC1 (centres undefined),0.01 mg/kg,,
67.6 nM,,COc1ccc(C(C)Cn2ccnc2NC#N)cc1OCCC1Cc2ccccc2C1 (centres undefined),>1.25 mg/kg,,
,,COc1ccc(C(C)Cn2ccnc2NC#N)cc1OC1CCCC1 (centres undefined),1.25 mg/kg,50%,84%
,,CC(Cn1ccnc1NC#N)c1ccc(OC(F)F)c(OCC2CC2)c1 (centres undefined),0.08 mg/kg,22%,52%
> 1000 nM,,CC(Cn1ccnc1O)c1ccc(OC(F)(F)F)c(OC2CCCC2)c1 (centres undefined),1.25 mg/kg,,
,,COc1ccc(C(C)Cn2ccnc2NC#N)cc1OC1CCOC1 (centres undefined),>1.25 mg/kg,38%,71%
24.3 nM,,COc1ccc(C(F)Cn2ccnc2O)cc1OC1Cc2ccccc2C1 (centres undefined),0.08 mg/kg,,
,,COc1ccc(C(C)Cn2ccnc2O)cc1OC1CCOC1 (centres undefined),0.02 mg/kg,,
28.4 nM,,CC(Cn1ccnc1NC#N)c1ccc(OC(F)F)c(OCCCCCc2ccccc2)c1 (centres undefined),>1.25 mg/kg,41%,69%
,,COc1ccc(C(C)Cn2ccnc2NC#N)cc1OCCCCCc1ccccc1 (centres undefined),>1.25 mg/kg,36%,77%
,220 nM,COc1ccc([C@H](C)Cn2ccnc2NC#N)cc1OC1Cc2ccccc2C1,>5 mg/kg,54%,
,63 nM,COc1ccc([C@@H](C)Cn2cc[nH]/c2=N\C#N)cc1OC1Cc2ccccc2C1,2.5 mg/kg,56%,
399 nM,,COc1ccc(C(O)Cn2ccnc2O)cc1OC1Cc2ccccc2C1 (centres undefined),0.31 mg/kg,,
277 nM,,COc1ccc(C(C)C(C)n2ccnc2O)cc1OC1CCCC1 (centres undefined),,,
110 nM,,COc1ccc(CCn2ccnc2O)cc1OC1CCCC1,0.08 mg/kg,32%,81%
,180 nM,COc1ccc(C(C)Cn2ccnc2NC#N)cc1OC1Cc2ccccc2C1 (centres undefined),2.5 mg/kg,51%,82%
,,COc1ccc(C(C)Cn2ccnc2NC#N)cc1OCC1CC1 (centres undefined),1.25 mg/kg,38%,78%
21 nM,,COc1ccc(C(C)Cn2ccnc2O)cc1OC1CC2CCC1C2 (centres undefined),0.01 mg/kg,34%,90%
327 nM,,COc1ccc(C(C)(F)Cn2ccnc2O)cc1OC1CCOC1 (centres undefined),0.31 mg/kg,,
> 1000 nM,,COc1ccc(C(C)(O)Cn2ccnc2O)cc1OC1CCOC1 (centres undefined),0.31 mg/kg,,
39.2 nM,,Oc1nccn1CC1(c2ccc(OC(F)F)c(OC3CCCC3)c2)CC1,0.08 mg/kg,,
486 nM,,COc1ccc(C(=O)Cn2ccnc2O)cc1OC1CCCC1,1.25 mg/kg,,
,,COc1ccc(C(=O)Nc2c(Cl)cncc2Cl)cc1OC1CCCC1,0.5 mg/kg,43%,69%
85.8 nM,3.5 nM,COc1ccc(C(C)Cn2ccnc2O)cc1OCC1CC1 (centres undefined),0.01 mg/kg,56%,74%
,,COc1ccc([C@]2(C#N)CC[C@@H](C(=O)O)CC2)cc1OC1CCCC1 [CILOMILAST],5 mg/kg,69%,88%
,,COc1ccc(C2CNC(=O)C2)cc1OC1CCCC1 (centres undefined) [ROLIPRAM],0.04 mg/kg,6%,43%
